Laboratory results published in US9179694B2, “Method and composition for enhancing milk production and milk component concentrations” (PURINA ANIMAL NUTRITION LLC, priority 2003, dated 2015).
Marks after values point to notes of the source that are not given here.

Experiment: Lactose content of produced milk in sorbitol feeding trials
Type: in vivo, Holstein cows
Conditions: for Lactose in Produced Milk: Pre-Partum Trial #1 (75/0/0 g/day in wk −3..−1/+1..+4/+5..+8)
Protocol: To determine the weight percent lactose, wet basis, in a liquid sample, the weight of the liquid sample is first determined. The actual weight of lactose in the liquid sample may then be determined using analysis kit number 176-303, that is available from Boehringer-Mannheim of Indianapolis, Ind. in accordance with the procedural instructions included with analysis kit number 176-303. The weight percent lactose, wet basis, in the liquid sample is then calculated by dividing the actual weight of lactose in the liquid sample by the actual weight of the liquid sample. Each cow of each of the six different trials (Control Trial #1, Control Trial #2, Pre-Partum Trial #1, Pre-Partum Trial #2, Pre/Post Trial #1, and Pre/Post Trial #2) was milked three times daily and the weight of produced milk by each cow was recorded at each milking. The milk from each cow was sampled once per week (⅓ of the sample volume from each of the three milkings occurring on the weekly milk sampling day) and was analyzed for true protein, total fat, lactose, and total solids, as detailed in the property determination and characterization techniques presented above. Additionally, samples of blood were periodically obtained from each cow during the four trials (Control Trial 2, Pre-Partum Trial #2, Pre/Post Trial #1, and Pre/Post Trial #2) encompassed in Example Two and were analyzed for non-esterified fatty acid (NEFA) content as detailed in the property determination and characterization techniques presented above. No NEFA analysis was conducted on the cows employed in Control Trial #1 or Pre-Partum Trial #1 that are the subject of Example One. Example One includes Control Trial #1 and Pre-Partum Trial #1. Both primiparious cows and multiparious cows were included in Control Trial #1 and Pre-Partum Trial #1. Five primiparious cows and fifteen multiparious cows were included in Control Trial #1; likewise, five primiparious cows and fifteen multiparious cows were included in Pre-Partum Trial #1. All cows included in Control Trial #1 and Pre-Partum Trial #1 were Holsteins. Example Two includes Control Trial #2, Pre-Partum Trial #2, Pre/Post Trial #1, and Pre/Post Trial #2. Only multiparious, Holstein cows were included in Control Trial #2, Pre-Partum Trial #1, Pre/Post Trial #1, and Pre/Post Trial #2. Eighteen multiparious cows were included in both Control Trial #2 and Pre-Partum Trial #2, while sixteen multiparious cows were included in Pre/Post Trial #1 and seventeen multiparious cows were included in Pre/Post Trial #2.

OC[C@@H](O)[C@@H](O)[C@H](O)[C@@H](O)CO [sorbitol]
Lactose in Produced Milk (multiparious cows, weeks +1 through +8): 4.77 wt %
Lactose in Produced Milk (primiparious cows, weeks +1 through +8): 4.98 wt %
increase in lactose concentration in the produced milk (Pre-Partum Trial #1 (75 g/day wk −3..−1 only) versus Control Trial #1, primiparious cows, weeks +1 through +8): 5.1%
Lactose Content of Produced Milk (Pre-Partum Trial #2 (75/0/100 g/day in wk −3..−1/+1..+4/+5..+8), multiparious cows, week +1): 4.42 weight %
Lactose Content of Produced Milk (Pre-Partum Trial #2 (75/0/100 g/day in wk −3..−1/+1..+4/+5..+8), multiparious cows, week +2): 4.69^a weight %
Lactose Content of Produced Milk (Pre-Partum Trial #2 (75/0/100 g/day in wk −3..−1/+1..+4/+5..+8), multiparious cows, week +3): 4.74^a weight %
Lactose Content of Produced Milk (Pre-Partum Trial #2 (75/0/100 g/day in wk −3..−1/+1..+4/+5..+8), multiparious cows, week +4): 4.75^a weight %
Lactose Content of Produced Milk (Pre-Partum Trial #2 (75/0/100 g/day in wk −3..−1/+1..+4/+5..+8), multiparious cows, week +5): 4.74^a weight %
Lactose Content of Produced Milk (Pre-Partum Trial #2 (75/0/100 g/day in wk −3..−1/+1..+4/+5..+8), multiparious cows, week +6): 4.75^a weight %
Lactose Content of Produced Milk (Pre-Partum Trial #2 (75/0/100 g/day in wk −3..−1/+1..+4/+5..+8), multiparious cows, week +7): 4.77^a weight %
Lactose Content of Produced Milk (Pre-Partum Trial #2 (75/0/100 g/day in wk −3..−1/+1..+4/+5..+8), multiparious cows, week +8): 4.76^a weight %
Lactose Content of Produced Milk (Pre-Partum Trial #2 (75/0/100 g/day in wk −3..−1/+1..+4/+5..+8), multiparious cows, weeks +1 through +4): 4.65 weight %
Lactose Content of Produced Milk (Pre-Partum Trial #2 (75/0/100 g/day in wk −3..−1/+1..+4/+5..+8), multiparious cows, weeks +5 through +8): 4.76^a weight %
Lactose Content of Produced Milk (Pre/Post Trial #1 (150/125/100 g/day in wk −3..−1/+1..+4/+5..+8), multiparious cows, week +1): 4.55 weight %
Lactose Content of Produced Milk (Pre/Post Trial #1 (150/125/100 g/day in wk −3..−1/+1..+4/+5..+8), multiparious cows, week +1, two-trial comparison with Control Trial #2 (Table 25)): 4.55 weight %
Lactose Content of Produced Milk (Pre/Post Trial #1 (150/125/100 g/day in wk −3..−1/+1..+4/+5..+8), multiparious cows, week +2): 4.79^ab weight %
Lactose Content of Produced Milk (Pre/Post Trial #1 (150/125/100 g/day in wk −3..−1/+1..+4/+5..+8), multiparious cows, week +2, two-trial comparison with Control Trial #2 (Table 25)): 4.79 weight %
Lactose Content of Produced Milk (Pre/Post Trial #1 (150/125/100 g/day in wk −3..−1/+1..+4/+5..+8), multiparious cows, week +3): 4.87^ab weight %
Lactose Content of Produced Milk (Pre/Post Trial #1 (150/125/100 g/day in wk −3..−1/+1..+4/+5..+8), multiparious cows, week +3, two-trial comparison with Control Trial #2 (Table 25)): 4.87 weight %
Lactose Content of Produced Milk (Pre/Post Trial #1 (150/125/100 g/day in wk −3..−1/+1..+4/+5..+8), multiparious cows, week +4): 4.90^b weight %
Lactose Content of Produced Milk (Pre/Post Trial #1 (150/125/100 g/day in wk −3..−1/+1..+4/+5..+8), multiparious cows, week +4, two-trial comparison with Control Trial #2 (Table 25)): 4.90 weight %
Lactose Content of Produced Milk (Pre/Post Trial #1 (150/125/100 g/day in wk −3..−1/+1..+4/+5..+8), multiparious cows, week +5): 4.93^c weight %
Lactose Content of Produced Milk (Pre/Post Trial #1 (150/125/100 g/day in wk −3..−1/+1..+4/+5..+8), multiparious cows, week +5, two-trial comparison with Control Trial #2 (Table 25)): 4.93 weight %
Lactose Content of Produced Milk (Pre/Post Trial #1 (150/125/100 g/day in wk −3..−1/+1..+4/+5..+8), multiparious cows, week +6): 4.90^ab weight %
Lactose Content of Produced Milk (Pre/Post Trial #1 (150/125/100 g/day in wk −3..−1/+1..+4/+5..+8), multiparious cows, week +6, two-trial comparison with Control Trial #2 (Table 25)): 4.90 weight %
Lactose Content of Produced Milk (Pre/Post Trial #1 (150/125/100 g/day in wk −3..−1/+1..+4/+5..+8), multiparious cows, week +7): 4.90^ab weight %
Lactose Content of Produced Milk (Pre/Post Trial #1 (150/125/100 g/day in wk −3..−1/+1..+4/+5..+8), multiparious cows, week +7, two-trial comparison with Control Trial #2 (Table 25)): 4.90 weight %
Lactose Content of Produced Milk (Pre/Post Trial #1 (150/125/100 g/day in wk −3..−1/+1..+4/+5..+8), multiparious cows, week +8): 4.84^ab weight %
Lactose Content of Produced Milk (Pre/Post Trial #1 (150/125/100 g/day in wk −3..−1/+1..+4/+5..+8), multiparious cows, week +8, two-trial comparison with Control Trial #2 (Table 25)): 4.84 weight %
Lactose Content of Produced Milk (Pre/Post Trial #1 (150/125/100 g/day in wk −3..−1/+1..+4/+5..+8), multiparious cows, weeks +1 through +4): 4.78 weight %
Lactose Content of Produced Milk (Pre/Post Trial #1 (150/125/100 g/day in wk −3..−1/+1..+4/+5..+8), multiparious cows, weeks +1 through +4, two-trial comparison with Control Trial #2 (Table 25)): 4.78 weight %
Lactose Content of Produced Milk (Pre/Post Trial #1 (150/125/100 g/day in wk −3..−1/+1..+4/+5..+8), multiparious cows, weeks +1 through +8): 4.83^ab weight %
Lactose Content of Produced Milk (Pre/Post Trial #1 (150/125/100 g/day in wk −3..−1/+1..+4/+5..+8), multiparious cows, weeks +1 through +8, two-trial comparison with Control Trial #2 (Table 25)): 4.83 weight %
Lactose Content of Produced Milk (Pre/Post Trial #1 (150/125/100 g/day in wk −3..−1/+1..+4/+5..+8), multiparious cows, weeks +5 through +8): 4.89^ab weight %
Lactose Content of Produced Milk (Pre/Post Trial #1 (150/125/100 g/day in wk −3..−1/+1..+4/+5..+8), multiparious cows, weeks +5 through +8, two-trial comparison with Control Trial #2 (Table 25)): 4.89 weight %
increase in lactose concentration in milk (Pre/Post Trial #1 (150/125/100 g/day) versus Control Trial #2, multiparious cows, weeks +1 through +4 (Table 25)): more than 2.5%
increase in lactose concentration in milk (Pre/Post Trial #1 (150/125/100 g/day) versus Control Trial #2, multiparious cows, weeks +1 through +8 (Table 25)): 1.9%
increase in lactose concentration in milk (Pre/Post Trial #1 (150/125/100 g/day) versus Control Trial #2, multiparious cows, weeks +5 through +8 (Table 25)): more than 2.5%
Lactose Content of Produced Milk (Pre/Post Trial #2 (75/75/100 g/day in wk −3..−1/+1..+4/+5..+8), multiparious cows, week +1): 4.47 weight %
Lactose Content of Produced Milk (Pre/Post Trial #2 (75/75/100 g/day in wk −3..−1/+1..+4/+5..+8), multiparious cows, week +2): 4.84^b weight %
Lactose Content of Produced Milk (Pre/Post Trial #2 (75/75/100 g/day in wk −3..−1/+1..+4/+5..+8), multiparious cows, week +3): 4.92^b weight %
Lactose Content of Produced Milk (Pre/Post Trial #2 (75/75/100 g/day in wk −3..−1/+1..+4/+5..+8), multiparious cows, week +4): 4.90^b weight %
Lactose Content of Produced Milk (Pre/Post Trial #2 (75/75/100 g/day in wk −3..−1/+1..+4/+5..+8), multiparious cows, week +5): 4.90^bc weight %
Lactose Content of Produced Milk (Pre/Post Trial #2 (75/75/100 g/day in wk −3..−1/+1..+4/+5..+8), multiparious cows, week +6): 4.92^b weight %
Lactose Content of Produced Milk (Pre/Post Trial #2 (75/75/100 g/day in wk −3..−1/+1..+4/+5..+8), multiparious cows, week +7): 4.96^b weight %
Lactose Content of Produced Milk (Pre/Post Trial #2 (75/75/100 g/day in wk −3..−1/+1..+4/+5..+8), multiparious cows, week +8): 4.93^b weight %
Lactose Content of Produced Milk (Pre/Post Trial #2 (75/75/100 g/day in wk −3..−1/+1..+4/+5..+8), multiparious cows, weeks +1 through +4): 4.78 weight %
Lactose Content of Produced Milk (Pre/Post Trial #2 (75/75/100 g/day in wk −3..−1/+1..+4/+5..+8), multiparious cows, weeks +1 through +8): 4.85^b weight %
greater lactose concentration in milk (Pre/Post Trial #2 (75/75/100 g/day) versus Pre-Partum Trial #2 (75/0/100 g/day), multiparious cows, weeks +1 through +8): 3.0%
increase in lactose concentration in milk (average of means of Pre-Partum Trial #2, Pre/Post Trial #1 and Pre/Post Trial #2 versus Control Trial #2, multiparious cows, weeks +1 through +4): 1.7%
increase in lactose concentration in milk (average of means of Pre-Partum Trial #2, Pre/Post Trial #1 and Pre/Post Trial #2 versus Control Trial #2, multiparious cows, weeks +1 through +8): 1.6%
